Entries after “also recorded” stand apart in the source; their conditions may differ.
Test system: MDA-MB-241 cells
Assay: 3D spheroid-based tumor invasion assay
Format: cell-based, human
Conditions: 30 μM, day 4 vs day 0
Protocol: Cellular analysis of 3D spheroid-based tumor invasion assays. Cell preparation and spheroid formation were performed following the manufacturer instructions (Corning). Briefly, MDA-MB-231 cells were harvested and diluted to a concentration of 5×10^4 cells/mL in (complete) culture media supplemented with 10% serum. 100 μL of cell suspension was then pipetted to appropriate 96 well spheroid formation plate and placed at 37° C./5% CO2. Spheroid formation was monitored every 24 hours. The typical cell aggregation period was 48 hours. Upon spheroid formation completion, 70 μL of complete medium was removed from each well, and replaced by 70 μL of serum-free medium. This was repeated on a daily basis to create a serum starvation period of 48 hours. Matrigel matrix (100 μL) was then added to each well. The plate was centrifuged at 300×g for 5 minutes in a swinging bucket centrifuge. The plate was then transferred to a 37° C./5% CO2 incubator for one hour to initiate gel formation. Following the 1-hour gel formation incubation period, DMSO or compound 4 was added to appropriate wells during 60 minutes. After pretreatment, the media was removed and replaced by complete culture media, and then the media was changed every day for a period of 4 days. […] These protrusions were identified, and their area and perimeter properly quantified using the ImageJ software (National Institutes of Health).

Which “invasiveness activity in 3D spheroid-based tumor invasion assay” value does the source give for `CC(C)(C)OC(=O)NNC(=O)c1ccc(N2C(=O)C=CC2=O)cc1` [Compound 4, N′-[4-(2,5-dioxo-2,5-dihydro-pyrrol-1-yl)-benzoyl]-hydrazine carboxylic acid tert-butyl ester] here?
The value was “anti-invasion properties; also recorded: efficiently inhibited”.

Source: US10759754B2, “Aminobenzoic acid derivatives for use as anti-inflammatory agents, anti-metastatic agents and/or anticancer agents” (3R VALO, S.E.C., priority 2016, dated 2020)
